Data: ChEMBL document CHEMBL3272341, “Cellular pharmocodynamics of several anthrocycline antibiotics” (J Med Chem, 1976)

What was measured:
L1210 [1] = assay: Inhibition of DNA synthesis in mouse L1210 cells assessed as inhibition of [3H]-thymidine incorporation measured per 10^6 cells […] pretreated for 1 hr followed by radiotracer addition measured after 1 hr by scintillation spectrometric analysis relative to control; assay type: functional
L1210 [2] = assay: Inhibition of DNA synthesis in mouse L1210 cells assessed as inhibition of [3H]-thymidine incorporation measured per 10^6 cells at 3 uM pretreated for 1 hr followed by radiotracer addition measured after 1 hr by scintillation spectrometric analysis relative to control; assay type: functional
L1210 [3] = assay: Inhibition of DNA synthesis in mouse L1210 cells assessed as inhibition of [3H]-thymidine incorporation measured per 10^6 cells at 5 uM pretreated for 1 hr followed by radiotracer addition measured after 1 hr by scintillation spectrometric analysis relative to control; assay type: functional
L1210 [4] = assay: Inhibition of RNA synthesis in mouse L1210 cells assessed as inhibition of [14C]-uridine incorporation measured per 10^6 cells […] pretreated for 1 hr followed by radiotracer addition measured after 1 hr by scintillation spectrometric analysis relative to control; assay type: functional
L1210 [5] = assay: Inhibition of RNA synthesis in mouse L1210 cells assessed as inhibition of [14C]-uridine incorporation measured per 10^6 cells at 3 uM pretreated for 1 hr followed by radiotracer addition measured after 1 hr by scintillation spectrometric analysis relative to control; assay type: functional
L1210 [6] = assay: Inhibition of RNA synthesis in mouse L1210 cells assessed as inhibition of [14C]-uridine incorporation measured per 10^6 cells at 5 uM pretreated for 1 hr followed by radiotracer addition measured after 1 hr by scintillation spectrometric analysis relative to control; assay type: functional
L1210 [7] = assay: Cellular uptake in mouse L1210 cells assessed per 10^6 cells at 3 uM up to 120 mins; assay type: ADME, cell-based; conditions: l1210, 2 h
L1210 [8] = assay: Ratio of inhibition of [3H]-thymidine incorporation into DNA in mouse L1210 cells to cellular uptake in mouse L1210 cells
L1210 [9] = assay: Ratio of inhibition of [14C]-uridine incorporation into RNA in mouse L1210 cells to cellular uptake in mouse L1210 cells

| Drug uptake (L1210 [7]) [nmol] | Structure (SMILES) | inhibition at 1 µM (L1210 [1]) [%] | inhibition at 3 µM (L1210 [2]) [%] | inhibition at 5 µM (L1210 [3]) [%] | inhibition at 1 µM (L1210 [4]) [%] | inhibition at 3 µM (L1210 [5]) [%] | inhibition at 5 µM (L1210 [6]) [%] | Ratio (L1210 [8]) | Ratio (L1210 [9]) |
| --- | --- | --- | --- | --- | --- | --- | --- | --- | --- |
| 0.19 | COc1cccc2c1C(=O)c1c(O)c3c(c(O)c1C2=O)C[C@@](O)(C(=O)CO)C[C@@H]3O[C@H]1C[C@H](N)[C@H](O)[C@H](C)O1 [DOXORUBICIN] | 28.9 | 34.5 | 52.2 | 22.5 | 50.8 | 56.9 | 152 | 121 |
| 0.16 | COc1cccc2c1C(=O)c1c(O)c3c(c(O)c1C2=O)C[C@@](O)([C@@H](O)CO)C[C@@H]3O[C@H]1C[C@H](N)[C@H](O)[C@H](C)O1 | 23.7 | 25 | 32 | 10.1 | 17.9 | 22.4 | 200 | 137 |
| 0.31 | COc1cccc2c1C(=O)c1c(O)c3c(c(O)c1C2=O)C[C@@](O)(C(C)=O)C[C@@H]3O[C@H]1C[C@H](N)[C@H](O)[C@H](C)O1 [DAUNORUBICIN] | 37 | 68.8 | 83 | 47.6 | 69.8 | 74.8 | 119 | 155 |

| Structure (SMILES) | Drug uptake (L1210 [7]) [nmol] | inhibition at 1 µM (L1210 [1]) [%] | inhibition at 3 µM (L1210 [2]) [%] | inhibition at 5 µM (L1210 [3]) [%] | inhibition at 1 µM (L1210 [4]) [%] | inhibition at 3 µM (L1210 [5]) [%] | inhibition at 5 µM (L1210 [6]) [%] | Ratio (L1210 [8]) | Ratio (L1210 [9]) |
| --- | --- | --- | --- | --- | --- | --- | --- | --- | --- |
| COc1cccc2c1C(=O)c1c(O)c3c(c(O)c1C2=O)C[C@@](O)(C(C)O)C[C@@H]3O[C@H]1C[C@H](N)[C@H](O)[C@H](C)O1 (stereo not given in full) | 0.33 | 12.1 | 30.8 | 36.8 | 11.2 | 28.9 | 46.4 | 94 | 88 |
| COc1cccc2c1C(=O)C1=C(C2=O)C(O)C2=C(C1O)[C@@H](C[C@@H]1C[C@H](N)[C@@H](O)[C@H](C)O1)C[C@@](O)(/C(C)=N/NC(=O)c1ccccc1)C2 (stereo not given in full) [RUBIDAZONE] | 0.2 | 12.7 | 27.2 | 41 | 11.6 | 36.8 | 58.2 | 65 | 60 |
